Results from PubChem BioAssay AID1648 (Sanford-Burnham Center for Chemical Genomics, 2009).
Active and inactive are the calls of the source. No rule for the calls is given here.

Target: Serine/threonine-protein kinase mTOR (Homo sapiens) (UniProt P42345)
Assay: binders of mTOR FRB domain, biophysical, NMR (AID 1648)
Conditions: NMR binding to FRB domain, chemical shift

Serine/threonine-protein kinase mTOR (Homo sapiens), sequence (P42345 2015-2114): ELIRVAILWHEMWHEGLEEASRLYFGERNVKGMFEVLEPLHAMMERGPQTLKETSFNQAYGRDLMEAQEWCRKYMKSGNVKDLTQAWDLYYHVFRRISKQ

With `CCC1(CC)C(=O)N=C(N)NC1=O` the Kd was > 4 mM (inactive).
`O=C1CC(=O)N2N=C(c3ccccc3)SC2=N1` was tested, and the Kd was > 4 mM (inactive).
In the case of `Cc1occc1C(=O)NCc1ccccn1`, the Kd is reported as > 4 mM (inactive).
In the case of `COc1ccc(-c2c(OC)c3c(OC)c4c(cc3oc2=O)OC(C)(C)C=C4)cc1`, the Kd is reported as > 4 mM (inactive).
`COc1cc(O)cc(/C=C/c2ccccc2)c1` was tested, and the Kd was > 4 mM (inactive).
For `Cn1c2c(c(=O)n(C)c1=O)CN(Cc1ccco1)CN2`, the Kd was > 4 mM (inactive).
With `CC(C)(O)P(C)(=O)c1ccccc1` (configuration not stated) the Kd was > 4 mM (inactive).
For `C[C@H]1[C@H](C)CC[C@]2(C(=O)O)CC[C@]3(C)C(=CCC4[C@@]5(C)C[C@@H](O)[C@H](O)[C@@](C)(CO)C5[C@H](O)C[C@]43C)[C@H]12` (some centres not stated), the Kd was > 4 mM (inactive).
In the case of `O=C1C2C3CCC(O3)C2C(=O)N1c1cccc(F)c1` (configuration not stated), the Kd is reported as > 4 mM (inactive).
`Cc1cc(C)n2nc(C(=O)Nc3cccnc3)nc2n1` was tested, and the Kd was > 4 mM (inactive).
With `Cc1cc(C(=O)Nc2ccccn2)no1` the Kd was > 4 mM (inactive).
`[O-][n+]1c2ccccc2[n+]([O-])c2cc(O)ccc21` was tested, and the Kd was > 4 mM (inactive).
With `COC(=O)Cc1cccc(OC)c1` the Kd was > 4 mM (inactive).
With `O=C(O)CCCNC(=O)c1ccccc1C(=O)O` the Kd was > 4 mM (inactive).
With `CC(=O)OC1CCC2(O)CC1(C)CCC1C2CC1(C)C` (configuration not stated) the Kd was > 4 mM (inactive).
For `CN(C)c1ccc(CNn2cnnc2)cc1`, the Kd was > 4 mM (inactive).
For `Cn1ccnc1C(O)c1ccccc1` (configuration not stated), the Kd was > 4 mM (inactive).
With `O=C(O)CC(O)c1nc2ccccc2[nH]1` (configuration not stated) the Kd was > 4 mM (inactive).
With `CC(NC(=O)c1ccco1)c1ccc2c(c1)OCCO2` (configuration not stated) the Kd was > 4 mM (inactive).
In the case of `CCN1CCn2c1nc(N1CCOCC1)nc2=O`, the Kd is reported as > 4 mM (inactive).
`O=C(O[C@@H]1Cc2c(O)cc(O)cc2O[C@@H]1c1cc(=O)c(O)c2c(O)c(O)cc([C@H]3Oc4cc(O)cc(O)c4C[C@H]3O)c2c1)c1cc(O)c(O)c(O)c1` was tested, and the Kd was > 4 mM (inactive).
With `CC(=O)CC1(O)C(=O)Nc2ccc(Br)cc21` (configuration not stated) the Kd was > 4 mM (inactive).
`Cn1cnc2nc3n(c2c1=O)CCC3` was tested, and the Kd was > 4 mM (inactive).
For `CCOC(=O)N1CCCC1c1cccnc1` (configuration not stated), the Kd was > 4 mM (inactive).
With `O=C1NC(=Nc2ccc(O)cc2)S/C1=C/c1ccco1` the Kd was > 4 mM (inactive).
With `Cc1cc(C)n(/N=C\c2cccs2)c(=O)c1C(N)=O` the Kd was > 4 mM (inactive).
For `COc1ccccc1NC(N)=S`, the Kd was > 4 mM (inactive).
`Cc1cccc(NC(=O)Nc2cc(C)on2)c1` was tested, and the Kd was > 4 mM (inactive).
`CN(C)C(=O)Nc1ccc2c(c1)nnn2C` was tested, and the Kd was > 4 mM (inactive).
With `Cn1c(O)c(C2=NC(=S)NC2=O)c2ccccc21` the Kd was > 4 mM (inactive).
With `COc1ccccc1NC(C)=O` the Kd was > 4 mM (inactive).
`CC(=O)Nc1cccc(N2C(=O)CCC2=O)c1` was tested, and the Kd was > 4 mM (inactive).
For `Cc1cc(=O)oc2cc(O)c(O)cc12`, the Kd was > 4 mM (inactive).
For `O=c1cccc2n1C[C@H]1CNCC2C1`, the Kd was > 4 mM (inactive).
In the case of `CC1(O)CC2C=CC1C2` (configuration not stated), the Kd is reported as > 4 mM (inactive).
For `O=C1CSC(=Nc2ccccc2)N1`, the Kd was > 4 mM (inactive).
For `c1cc(CNc2ccc3c(c2)OCCO3)ccn1`, the Kd was > 4 mM (inactive).
With `Cc1cc(C(=O)Nc2cccnc2)no1` the Kd was > 4 mM (inactive).
`CN1C(=O)/C(=C/c2ccccc2O)NC1=S` was tested, and the Kd was > 4 mM (inactive).
`CNC(=O)C1COc2ccccc2O1` (configuration not stated) was tested, and the Kd was > 4 mM (inactive).
With `NC(=O)CC1Nc2cccc3cccc(c23)NC1=O` (configuration not stated) the Kd was > 4 mM (inactive).
In the case of `Nc1ccc(OCc2ccccc2)cc1`, the Kd is reported as > 4 mM (inactive).
With `O=C(O)C1COc2ccccc2C1` (configuration not stated) the Kd was > 4 mM (inactive).
`COC(=O)C[C@H]1C(C)(C)C(OC(C)=O)[C@]2(O)C=C3C(CC[C@]4(C)C3CC(=O)O[C@H]4c3ccoc3)C1(C)C2=O` (some centres not stated) was tested, and the Kd was > 4 mM (inactive).
`CC1(C(=O)O)CC2C=CC1C2` (configuration not stated) was tested, and the Kd was > 4 mM (inactive).
With `Cn1cccc1C(=O)NS(=O)(=O)c1ccccc1Cl` the Kd was > 4 mM (inactive).
For `NC(=O)c1ccccc1NC(=O)C1CC1`, the Kd was > 4 mM (inactive).
